Measured values as given in patent US6429204B1, “Method of inhibiting cancer growth” (University of Miami, priority 1997, dated 2002).
Where two headings read alike, the source gives them in different places.

Tests used:
[1] = target: T1, Gelatinase A (Homo sapiens, UniProt P08253); assay: Zymography with densitometry of C8161 conditioned medium, gelatinase A; type: cell-based; details: 50 μg/mL, 24 hr
T1 construct: endogenous in cells; host or cells: C8161
T1 sequence (P08253 110-660): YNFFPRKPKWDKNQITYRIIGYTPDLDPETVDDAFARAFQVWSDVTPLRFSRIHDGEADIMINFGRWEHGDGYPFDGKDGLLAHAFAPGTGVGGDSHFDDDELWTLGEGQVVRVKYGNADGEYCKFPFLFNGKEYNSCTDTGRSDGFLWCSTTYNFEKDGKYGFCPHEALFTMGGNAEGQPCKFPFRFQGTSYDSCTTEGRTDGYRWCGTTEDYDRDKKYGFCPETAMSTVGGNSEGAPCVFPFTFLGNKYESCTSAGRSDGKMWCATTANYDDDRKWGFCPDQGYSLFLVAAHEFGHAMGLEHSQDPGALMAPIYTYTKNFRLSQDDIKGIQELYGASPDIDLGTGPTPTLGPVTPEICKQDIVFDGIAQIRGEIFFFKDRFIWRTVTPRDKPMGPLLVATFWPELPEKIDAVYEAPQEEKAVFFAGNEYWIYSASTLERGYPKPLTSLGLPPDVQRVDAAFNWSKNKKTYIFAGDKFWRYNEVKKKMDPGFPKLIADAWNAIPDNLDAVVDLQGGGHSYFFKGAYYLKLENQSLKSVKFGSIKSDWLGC
Description: (§1) Six hundred thousand (6×10^5) C8161 cells were seeded per well in a 12-well dish coated with a laminin/collagen IV/gelatin matrix in DMEM plus Mito+ and 0.1% gentamicin sulfate. After approximately 1 hr incubation to allow the cells to attach, 50 μg/mL of either doxycycline or one of the other CMTs was added per well and the dish then placed in a 37° C. humidified 5% CO2 incubator. After 24 hr, the supernatants were removed and centrifuged to remove any cells or debris. One volume of Laemmli sample buffer minus reductant was added to two volumes of the medium, and this sample electrophoresed without prior heating or boiling on a 10% SDS-PAGE containing 0.1% gelatin (samples normalized based on the same number of cells per volume of medium per time of incubation). After electrophoresis, the gels were washed with gentle shaking at room temperature for 30 min in 50 mM Tris-HCl (pH 7.5) plus 2.5% TRITON® X100 plus 50 μg/mL of the corresponding CMT used in the original treatment. The gel was then placed in incubation buffer (50 mM Tris-Cl/10 mM CaCl2/150 mM NaCl/0.05% NaN3) also containing 50 μg/mL of the corresponding CMT, and incubated at 37° C. for 20-24 hr. The gels were stained with Coomassie BBR-250, then destained with 10% methanol/10% acetic acid in water until the wash remained clear. A photographic negative of the gel was digitized using a video camera and Snappy Video Snapshot system (Play Inc., Rancho Cordova, Calif.). An integrated density was determined for each of the cleared zones of proteolysis using the software ImagePC8α (freely available from the National Institutes of Health), and the corresponding changes in gelatinolytic activities reported compared to the control samples normalized to a value of 1.0.

[2] = tested on: C8161 cells; assay: In vivo metastasis assay, C8161 cells i.v. in SCID mice; details: for Number of Lung Metastases/Mouse: Average ± SEM, control 231 ± 49
Description: Immunosuppressed mice (athymic nude/nude SCID females from Harlan Sprague Dawley) were housed in autoclaved cages with microisolator tops, and all manipulations of the animals were done in a laminar flow hood after wiping down both the hood, gloves and cages with ABQ sterilant. The mice were fed sterile Pico Lab Chow (Purina) and autoclaved St. Louis tap water. […] The compounds and control (sterile water plus 2% carboxymethyl cellulose) were kept stored at −80° C. wrapped in aluminum foil to prevent any light induced changes, and each day's supply was thawed just prior to use. Four compounds were tested for their effects on the metastatic potential of C8161 cells injected intravenously via the tail vein: […] The concentration of the compounds in the vials used to give the 100 mg/kg doses were 2.5 times that in the 40 mg/kg dose so that approximately the same volume was used in both cases, approximately 0.5 mL/animal. The experiments started with nine animals per group at day −4. On day zero, 2×10^5 C8161 cells in cold Hank's Balanced Salt Solution (HBSS) were injected intravenously via tail vein inoculation. The experiment was continued for an additional 24 days, at which time the animals were sacrificed and their lungs removed and fixed in a solution of Bouins/formaldehyde (5 parts:1 part). Tumors were quantitated on the entire surface of the lungs by rotating the lungs and counting the tumors on each lobe using a 6× magnifying glass. Statistical analysis was performed using the statistical package of Microsoft's Excel spreadsheet software.

[3] = tested on: C8161 human melanoma cells; assay: In vitro invasion assay (MICS), laminin/collagen IV/gelatin matrix-coated filter; type: cell-based; details: 3, 20 and 50 μg/mL; for Percent Inhibition of invasive potential: 48 hr
Description: The in vitro invasive potentials of the control (DMSO only) and chemically-modified tetracycline treated cells were measured using a modified Boyden chamber as previously described (Membrane Invasion Culture System, MICS). An intervening barrier consisting of a polycarbonate filter containing 10 μm pores (Osmonics, Livermore, Calif.) coated with a defined matrix of human laminin/collagen IV/gelatin (Sigma, St. Louis, Mo.) was used for these studies. […] Doxycycline or individual CMTs were then added to different wells of the chamber at 3, 20 or 50 μg/mL 2 hr post-seeding and daily during the assay. After 48 hr, the cells were removed from the lower wells and the number of invasive cells was determined and compared to the original number of cells seeded into the upper wells. Where appropriate, data were corrected for proliferation during the period of the in vitro assay.

[4] = tested on: COLO 205 Cells; assay: MTS cytotoxicity assay, COLO 205; details: two days
[5] = tested on: C8161 cells; assay: C8161 cell proliferation (doubling time); type: cell-based, human; details: 50 μg/mL; for Doubling Time: on plastic, DMSO 22 hr; for increase of doubling time: versus DMSO
Description: Cell Culture and Maintenance: C8161 cells, a human melanoma cell line, were maintained in Dulbecco's modified Eagle's medium (DMEM; […] These cells were routinely screened for Mycoplasma contamination using the GenProbe Rapid Detection System (Fisher Scientific; Chicago, Ill.). Chemically Modified Tetracyclines: Fresh stock solutions of the chemically modified tetracycline compounds (2 mg/mL) were prepared for each experiment by hydrating in 2% dimethyl sulfoxide (DMSO)/water pH 10, then adjusting to pH 7.4 using 1.0 M HCl. […] Sigma Chem. Co.; control) or 50 μg/mL of doxycycline or the other CMTs (three wells on each plate per compound). […] The doubling time for C8161 cells in the presence of each compound was then determined and compared to the DMSO treated cells (control).

[6] = target: T2, Gelatinase B (Homo sapiens, UniProt P14780); assay: Zymography with densitometry of C8161 conditioned medium, gelatinase B; type: cell-based; details: 50 μg/mL, 24 hr
T2 construct: endogenous in cells; host or cells: C8161
Description: as §1

[7] = tested on: E-10 Cells; assay: MTS cytotoxicity assay, E-10; details: two days
Description: (§2) A panel of chemically modified tetracycline compounds and doxycycline were tested for cytotoxicity against two carcinomas: COLO 205 (a human colon carcinoma-derived cell line) and the E-10 clone of MDA-MB-231 (a human breast carcinoma-derived cell line). Cytoxicity was measured using a conventional assay for viability with a tetrazolium salt (MTS). Cells were grown in media containing the CMTs at concentrations ranging from 5 μM to 100 μM for two days. The cells were then incubated with the MTS for several hours before removal of the supernatant medium for determination of formazan, which is generated only by the viable cells. Results are expressed as percent cytotoxicity, which is simply the percent decline in measured formazan concentration in the sampled medium.

[8] = tested on: E-10 Cells
Description: as §2

[9] = tested on: COLO 205 Cells
[10] = tested on: TSU-PR1 cells; assay: Matrigel invasion assay (Boyden chamber, MTT), TSU-PR1; type: cell-based, human; details: TSU-PR1, 48 hr
Description: In this method, 4×10^5 tumor cells were plated on the top chamber of the Boyden chemotaxis assay chambers (Costar Transwell plates). The bottom side of the chamber was a 12 μm-pore polycarbonate filter layered with 0.5 mm thick layer of Matrigel. The bottom well contained a chemoattractant, a serum-free culture-conditioned medium from FHS 733 cells, a line of human fetal lung fibroblasts (ATCC No. HTB-157). Cancer cells (4×10^5) were plated in the top wells of the plates. Doxycycline or CMTs were diluted in a serum-free medium to 5 μg/mL, and were added to both top and bottom chambers. […] After 48 hr incubation, MTT was added to both the top and bottom wells (0.5 mg/mL), and incubation was continued for 4 hr. Wells were then emptied, and the cells from the undersides of the filter were pooled with those in the bottom wells with a filter tip. The reduced MTT (formazan) from top and bottom wells was solubilized with DMSO overnight, and absorbance (O.D.) at 515 nm was measured. The ratio of the O.D. from the bottom wells to that of the total (i.e., O.D. of top plus bottom wells) was taken as the invasive potential. […] The MTT assay procedure also normalizes the coincident inhibition due to the cytotoxic effects of the agents under investigation. Results presented are from three independent experiments.

[11] = tested on: DU-145 and TSU-PR1 prostate cancer cell lines; assay: Prostate cancer cell viability/proliferation (trypan blue, MTT); type: cell-based, human
Text: To determine the cytotoxicity of CMTs on prostate tumor cell lines, TSU-PR1 cells (and cells of other tumor cell lines) were exposed to various CMTs or to doxycycline for 24 hr or 48 hr in a complete medium. Cell viability (percent of live cells) was estimated by counting the cells following trypan blue staining. Cellular viability was also estimated by the tetrazolium dye reduction assay (MTT assay) (Lokeshwar et al. 1995b). Due to the aggressive proliferative capacity of cancer cells, it is assumed that viable cells are actively proliferating. Therefore, the measurement of viability was used as an estimate of proliferation. Results are expressed as Mean±SEM from three separate experiments.

T2 sequence (P14780 94-707): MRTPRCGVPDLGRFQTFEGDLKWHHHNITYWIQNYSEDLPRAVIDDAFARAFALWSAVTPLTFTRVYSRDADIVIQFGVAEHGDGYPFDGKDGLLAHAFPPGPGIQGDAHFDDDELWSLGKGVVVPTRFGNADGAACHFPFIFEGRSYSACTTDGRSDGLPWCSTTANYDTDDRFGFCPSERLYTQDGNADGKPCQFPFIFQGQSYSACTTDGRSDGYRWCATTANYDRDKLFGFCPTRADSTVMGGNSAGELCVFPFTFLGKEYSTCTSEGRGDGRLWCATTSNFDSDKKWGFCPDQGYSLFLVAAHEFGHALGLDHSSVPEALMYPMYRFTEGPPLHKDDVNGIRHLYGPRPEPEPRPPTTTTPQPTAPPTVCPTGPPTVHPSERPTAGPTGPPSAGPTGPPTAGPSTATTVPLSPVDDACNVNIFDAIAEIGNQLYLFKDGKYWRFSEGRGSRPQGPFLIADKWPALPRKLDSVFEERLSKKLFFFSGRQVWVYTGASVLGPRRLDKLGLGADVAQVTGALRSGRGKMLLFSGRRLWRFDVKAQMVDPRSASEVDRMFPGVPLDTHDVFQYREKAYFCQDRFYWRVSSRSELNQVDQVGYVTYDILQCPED

| Molecule | Gelatinase A, integrated density normalized to control 1.00 [1] | Number of Lung Metastases/Mouse ([2]; 40 mg/kg daily intragastric) | Number of Lung Metastases/Mouse ([2]; 100 mg/kg daily intragastric) | Type of Inhibition [3] | Percent Inhibition of invasive potential [3] | percent cytotoxicity ([4]; 5 μM) | percent cytotoxicity ([4]; 10 μM) | percent cytotoxicity ([4]; 20 μM) | percent cytotoxicity ([4]; 50 μM) | percent cytotoxicity ([4]; 100 μM) | Doubling Time [5] | increase of doubling time [5] | Gelatinase B, integrated density normalized to control 1.00 [6] | percent cytotoxicity ([7]; 5 μM) | percent cytotoxicity ([7]; 10 μM) | percent cytotoxicity ([7]; 20 μM) | percent cytotoxicity ([7]; 50 μM) | percent cytotoxicity ([7]; 100 μM) | effect on number of lung metastases (significance) ([2]; at either dosage, p>0.05) | further results |
| --- | --- | --- | --- | --- | --- | --- | --- | --- | --- | --- | --- | --- | --- | --- | --- | --- | --- | --- | --- | --- |
| CC1(O)c2cccc(O)c2C(=O)C2=C(O)C3(O)C(=O)C(C(N)=O)=C(O)CC3CC21 (stereo not drawn) [CMT-1, 4-de(dimethylamino)tetracycline] | 0.24 | 129 ± 102 | 240 ± 28 | dose-dependent | 26-58% | 0% | 4% | 32.5% | 63.8% | 82.8% | 24 h | approximately 9% | 0.22 | 7.6% | 0% | 0% | 2.2% | 7.6% |  | effect on number of lung metastases (significance) ([2]; 40 mg/kg daily, p<0.05): significantly reduced the number of lung metastases; effect on number of lung metastases (significance) ([2]; 100 mg/kg): did not significantly reduce the number of lung metastases |
| CC1(O)c2c(Cl)ccc(O)c2C(=O)C2=C(O)C3(O)C(=O)C(C(N)=O)=C(O)CC3CC21 (stereo not drawn) [CMT-4, 4-de(dimethylamino)-7-chlorotetracycline] | 0.75 |  |  | non-dose | ˜20% |  |  |  |  |  | 22 h | did not affect the doubling time | 0.12 |  |  |  |  |  |  | percent cytotoxicity ([8]; 5 µM): 9%; percent cytotoxicity ([8]; 10 µM): 16.7%; percent cytotoxicity ([8]; 20 μM): 0.8%; percent cytotoxicity ([8]; 50 µM): 0%; percent cytotoxicity ([8]; 100 µM): 0%; percent cytotoxicity ([9]; 5 µM): 1.8%; percent cytotoxicity ([9]; 10 µM): 6.8%; percent cytotoxicity ([9]; 20 μM): 25.3%; percent cytotoxicity ([9]; 50 µM): 73.3%; percent cytotoxicity ([9]; 100 µM): 81.9% |
| CC1(O)c2cccc(O)c2C(=O)C2=C(O)C3C(=O)C(C(N)=O)=C(O)CC3CC21 (stereo not drawn) [CMT-7, 4-de(dimethylamino)-12α-deoxytetracycline] | 0.17 | 136 ± 107 | 166 ± 101 | non | 15-55% | 0% | 0% | 0% | 0% | 29.4% | 24 h | approximately 9% | 1.22 | 0% | 0% | 0% | 0% | 8.3% | did not significantly reduce the number of lung metastases | 50% inhibitory dose (IC50), Matrigel invasion [10]: > 100 µg/mL |
| C[C@H]1c2cccc(O)c2C(O)=C2C(=O)[C@]3(O)C(O)=C(C(N)=O)C(=O)C[C@@H]3[C@@H](O)[C@@H]21 [CMT-8, 6α-deoxy-5-hydroxy-4-de(dimethylamino)tetracycline] | 0.70 | 186 ± 60 |  | non-dose | ˜12% | 0% | 20.5% | 35.5% | 44.4% | 50% | 26 h | approximately 18% | 1.05 | 0% | 0% | 0% | 0% | 0% | did not significantly reduce the number of lung metastases |  |
| tetracycline pyrazole [CMT-5] |  |  |  |  |  |  |  |  |  |  |  |  |  |  |  |  |  |  |  | inhibition of cell proliferation [11]: not inhibitory |
